As a reminder, the pKa is the pH at which an ionisable group is half protonated. A high value points to a group that holds its proton tightly.

As for `C#C[C@]1(O)C[C@H](C)N[C@@H]2CCCC[C@H]21`, the pKa (basic group) is 9.63.
`[O-]c1nc(NO)cc[n+]1[C@H]1O[C@@H](CO)[C@H](O)[C@@H]1O`: for the setting “acidic group”, the pKa came out at 10.5.
Same read-out and setting: with `CC(C)C(=O)CC=O` the figure was 6.68; with `O=C(O)c1cc([N+](=O)[O-])ccc1CO`, 3.14; with `COc1cccc(C=O)c1O`, 7.91.
Regarding `CC(C(O)c1ccccc1)N(C)C` (stereo not drawn), under “basic group”, the pKa amounted to 9.3.
For `Cc1cccc(C(=O)O)c1C`, where the note is “acidic group”, the pKa was determined as 3.73.
The same measure, in the same setting: to `COc1ccc(C(=O)O[C@H]2O[C@@H](C(=O)O)[C@H](O)[C@@H](O)[C@@H]2O)cc1OC` belongs 3.47; to `C=C(C)[C@H]1C[NH2+][C@H](C(=O)[O-])[C@H]1CC(=O)O`, 4.43.
`NCC[NH2+]Cc1ccccc1` came in with a pKa (basic group) of 6.48.
With `Cc1c[nH]c(C)c1C`, the pKa (basic group) stood at 3.94.
On the same count and under the same terms, to `O=C([O-])C1CCCN1` (stereo not drawn) belongs 10.6; to `C(C[NH2+]CCc1nnn[n-]1)NCCc1nnn[n-]1`, 6.3.
Compound `Cc1nn(-c2ccccc2)c(O)c1C(C)C` had a pKa (acidic group) of 11.6.
With `O=C([O-])[C@@H]1Cc2[nH]cnc2C[NH2+]1`, where the note is “basic group”, the pKa was 4.73.
As for `O=C1CC(S)C(=O)N1` (stereo not drawn), the pKa (acidic group) stood at 6.65.
On the same count and under the same terms, to `O=C1CC(=O)CS(=O)C1` belongs 3.12.
Regarding `CC(N)C(=O)[O-]` (stereo not drawn), the pKa (basic group) was found to be 9.83.
`O=c1ccc2ccc(O)c(O)c2o1` showed a pKa (acidic group) of 6.9.
The same measure, in the same setting: with `O=C(Oc1cccc(Cl)c1)C1c2ccccc2-c2ccccc21` the figure was 10.2.
Same read-out and setting: to `O=C1CCON1` belongs 6.7; to `CC(C)CCC(=O)O`, 4.84.
On to `C#CCN1CCOCC1`, for which the pKa (basic group) is 5.54.
With `Cc1cc(Br)ccc1C(=O)O`, under “acidic group”, the pKa is 3.77.
For `CNC(=N)CCNS(=O)(=O)c1ccc(C)cc1`, the pKa reads like this: (acidic group) 11.9; (basic group) 10.
With `CCCCCCCCCCN(CC(C)O)CC(O)CC` (stereo not drawn), the pKa (basic group) was 6.7.
Same read-out and setting: to `c1cncc(-c2ccc[nH+]c2)c1` belongs 3; to `CCN(CC)N(C)C`, 6.88.
As to `Cc1ccc(C(=O)O)cc1[N+](=O)[O-]`, under “acidic group”, the pKa came out at 3.62.
`C[NH+](C)c1ccccc1C(=O)O`: the pKa (acidic group) is 1.4.
For the compound `CCOC(=O)C1(c2ccccc2)CCN(CC)CC1`, under “basic group”, the pKa worked out at 9.03.
For the setting “basic group”, `N#CC1C(=O)Cc2ccccc21` (stereo not drawn) registered a pKa of 4.8.
Same read-out and setting: with `OCCCCc1ccccn1` the figure was 5.83; with `N=C(N)Nc1nc(N)nc(NC(=N)N)n1`, 9.8.
With `CC(C)(C(=O)O)c1nnnn1C1CCCCC1`, where the note is “acidic group”, the pKa stood at 3.7.
The same measure, in the same setting: to `Cc1cccc(C(=O)[O-])c1O` belongs 14.4.
The same measure, in the same setting: with `Cc1nc2ccccc2[nH+]c1O` the figure was 0.48.
Where the note is “basic group”, `Cc1ccnnc1C` displayed a pKa of 4.1.
With `COc1cccc(OC)c1-c1nc2cnccc2[nH]1`, the pKa runs as follows: (acidic group) 10.9; (basic group) 6.34.
As for `Cc1nc2ccccc2nc1[O-]`, for the setting “basic group”, the pKa amounted to 9.88.
With `[NH3+]C(c1cccc(O)c1O)P(=O)([O-])O` (stereo not drawn), for the setting “acidic group”, the pKa is 5.06.
Regarding `CC(C)(C(=O)O)C(C(N)=O)c1ccccc1` (stereo not drawn), the pKa (acidic group) came out at 4.8.
`C=CC(C)Nc1ccccc1` (stereo not drawn): the pKa (basic group) is 4.57.
`NNC(=O)c1ccccc1`: the pKa is 12.4 (acidic group) and 3.02 (basic group).
Regarding `CCCC[NH2+]CC/C(N)=N/O`, the pKa (basic group) amounted to 3.75.
Same read-out and setting: with `O=[N+]([O-])c1cnc([O-])nc1[O-]` the figure was 11.5.
Regarding `Cc1ccc(C(=O)NO)cc1`, under “acidic group”, the pKa came to 8.9.
On to `Cc1nc(C)c(C)[nH+]c1C`, for which the pKa (basic group) was -2.73.
As to `Cc1cccc(CCCCCCCC(=O)O)[nH+]1`, the pKa (acidic group) was 4.6.
Consider `CC(C)(C)n1ccnc1`, for which, for the setting “basic group”, the pKa turned out to be 7.35.
`O=C1CCC(Cl)C1=O` (stereo not drawn): the pKa (acidic group) stood at 7.05.
`Cc1nc2cncnc2nc1C`: where the note is “basic group”, the pKa came out at 2.93.
For the compound `Cc1ccc(C(=O)O)s1`, the pKa is, setting by setting: (acidic group) 3.76; (basic group) -0.57.
`Nc1ccc2c(c1)Cc1cc(O)ccc1-2` yielded a pKa (basic group) of 4.88.
